This is an account of results in patent US20230392118A1, “GENERATION OF CD4+ EFFECTOR AND REGULATORY T CELLS FROM HUMAN PLURIPOTENT STEM CELLS” (Sangamo Therapeutics, Inc., priority 2020, published 2023).

In this assay the test system is dox-inducible GFP expression cassette. Nature of the assay: Dox-inducible GFP expression cassette integrated into AAVS1 locus of iPSCs. It counts as cell-based, human. On the procedure:
This Example describes an experiment in which a green fluorescent protein expression cassette was integrated into the AAVS1 gene locus as illustrated in FIG. 21. AAVS1 ZFN mRNA and donor plasmid were delivered into iPSCs via electroporation on Day −7. One week later (Day 0), puromycin was added (0.3 μg/mL) to the tissue culture to begin positive selection for cells having undergone targeted integration. Doxycycline was added at Day 15 and maintained in culture at 3 different doses (0.3, 1, and 3 μg/mL) to induce expression of the dox-inducible GFP expression cassette. […] Cells were maintained in the presence of doxycycline for 13 days. During this period, the 3 μg/mL dose of doxycycline yielded the highest level of inducible GFP transgene expression (94%; FIG. 22). This high level of expression was sustained while doxycycline was present in culture. Cells were maintained in puromycin as well as doxycycline from Day 15-28 and were further positively selected (increase from ˜50% to ˜70% of alleles with targeted integration).

Consider `COc1ccc(C[C@H](N)C(=O)N[C@H]2[C@@H](O)[C@H](n3cnc4c(N(C)C)ncnc43)O[C@@H]2CO)cc1` [puromycin], for which the “Alleles with targeted integration after positive selection” value (puromycin as well as doxycycline, Day 15-28, increase from ~50%) is listed as approximately 70%.
As for `C[C@H]1c2cccc(O)c2C(=O)C2=C(O)[C@]3(O)C(=O)C(C(N)=O)=C(O)[C@@H](N(C)C)[C@@H]3[C@@H](O)[C@@H]21` [doxycycline], where the note is “3 μg/mL doxycycline, iPSCs, maintained 13 days”, the “Inducible GFP transgene expression” value stood at 94%.
